`COc1cc2ccc3c4cc(OC)c(OC)cc4nc(C)c3c2cc1OC` showed a melting point of 255 to 257 °C. With `Cn1ccnc1COc1cccc(Nc2cc(-c3c[nH]nc3-c3ccccn3)ccn2)c1` the melting point was 120 °C. `N#CCCN1c2ccccc2Sc2ccccc21` showed a melting point of 158 to 160 °C. With `CCC(CC)n1nnc2cc(C)c(C)c([N+](=O)[O-])c21` the melting point was 106 to 108 °C. Work on `CC(=O)c1ccc(-n2sc3ccccc3c2=O)cc1` yielded a melting point of 183 to 185 °C. Work on `O=C(O)c1ccc(-c2csc(-c3ccncc3)n2)cc1` yielded a melting point of over 300 °C. `CS(=O)(=O)c1ccc(-c2cc(=O)n(C3CCCC3)nc2-c2ccc(F)cc2)cc1` gave a melting point of 191 to 192 °C. For `COC(=O)C(C)n1nnc2ccc(OCc3ccccc3)cc21` (configuration not stated), the melting point was 88 to 91.5 °C. Molecule `CC(C)(CCc1ccc(OCCO)cc1)NCC(O)c1ccccc1` (configuration not stated) has a melting point of 118 to 120 °C. Work on `CSc1cc(-c2ccccc2)nc(-c2cccc(CCl)c2)c1` yielded a melting point of 56.8 °C. For `CCCCCC(=O)NC(C(C)=O)c1ccccc1` (configuration not stated), the melting point was 77 to 78 °C. Molecule `O=C=NC1(N=NC2(N=C=O)CCCCC2)CCCCC1` has a melting point of 38 to 40 °C. For `CC(=O)Nc1nc2c(s1)-c1nc(N3CCOCC3)ncc1C2`, the melting point was over 300 °C. Work on `O=S(=O)(c1ccccc1)N1CCC(=C(c2ccc(F)cc2)c2ccc(F)cc2)CC1` yielded a melting point of 90 to 92.5 °C. `COc1cc(NC2=NCC(c3ccccc3)O2)ccc1-c1cnco1` (configuration not stated) gave a melting point of 130 to 132 °C. Molecule `CCOC(=O)CCCOc1ccc(C(=O)Nc2ccccc2S(=O)(=O)c2ccccc2-c2nnn[nH]2)cc1` has a melting point of 182 to 184 °C. In the case of `COC(=O)[C@H]1O[C@@H](n2cnc3c(Cl)ncnc32)[C@H](OC(C)=O)[C@@H]1N=[N+]=[N-]`, the melting point is reported as 94 to 96 °C. With `O=[N+]([O-])c1cc2nc(O)c(O)nc2c2ncccc12` the melting point was over 300 °C. Molecule `COC(=O)C1(n2c(=O)c3ccccc3n(CCCCBr)c2=O)CCCC1` has a melting point of 96 to 98 °C. Work on `CC(N)=CC(=O)c1cccs1` yielded a melting point of 170 to 172 °C. With `CC(C)C[C@H](NC(=O)OC(C)(C)C)C(=O)N[C@@H](C(C)C)[C@@H](O)c1c(-c2ccccc2)c1=O` the melting point was 158 to 161 °C. `CC1(C)CCc2ccccc2C1c1cncnc1SCF` (configuration not stated) gave a melting point of 126 to 128 °C. `CCCC(=O)OC(C)OC(=O)NC1(C(=O)O)CC1` (configuration not stated) gave a melting point of 90.4 to 93.4 °C. In the case of `COC(=O)c1nc(Cl)c(Cl)c(N)c1OC`, the melting point is reported as 119 to 121 °C. Work on `O=C(O)CCC(=O)c1ccc(-c2ccc(Cl)s2)cc1` yielded a melting point of 212 to 213 °C. Work on `O=S(=O)(c1ccc(O)cc1)c1ncsc1-c1ccccc1` yielded a melting point of 195 °C. `C[C@H](C=C[C@H](C)[C@H](C)CO)[C@H]1CC[C@H]2C3=CCC4CC(=O)CC[C@]4(C)[C@H]3CC[C@]12C` (some centres not stated) showed a melting point of 192 to 193 °C. Molecule `CC(=O)N(Cc1ccc(C(=O)O)cc1)c1ccc2c(c1)C(C)(C)CCC2(C)C` has a melting point of 219 to 223 °C. `Oc1ccc(-c2cnc3cnc(-c4ccc(O)cc4)nc3c2)cc1` showed a melting point of 307 to 308 °C. With `O=S(=O)(Cl)C=Cc1c(Cl)cccc1Cl` the melting point was 88 to 90 °C. Molecule `Fc1c(F)c(F)c(OC2(c3ccccc3)CCN(Cc3ccccc3)CC2)c(F)c1F` has a melting point of 80 to 83 °C. Molecule `COc1ccc(-c2nc(CCCCCC(C#N)C(=O)O)oc2-c2ccc(OC)cc2)cc1` (configuration not stated) has a melting point of 150 °C. For `O=C(Nc1ccccc1)c1cccc(C2=NOCCS2)c1`, the melting point was 149 to 150 °C. `COC(=O)CNc1ccc(OCc2ccccc2)cc1` gave a melting point of 106 to 107 °C. `C=CC[C@H]1C(=O)N(S(=O)(=O)c2cc3ccccc3s2)[C@@H]2CCN(C(=O)OCc3ccccc3)[C@H]21` (relative stereo) showed a melting point of 146 °C. Work on `CCOC(=O)CNC(=O)c1nc2ccc(NCCCN3CCC(OC(c4ccccc4)c4ccccc4)CC3)nn2c1Cl` yielded a melting point of 178 to 180 °C. `COc1cccc(-c2nc(-c3ccccc3C)n(C(=O)Nc3ccccc3)n2)c1` showed a melting point of 123 to 125 °C. Molecule `O=CC=CC=CC=CC=Cc1ccsc1` has a melting point of 156 to 158 °C. In the case of `CS(=O)(=O)c1ccc(-c2cc(=O)n(Cc3ccc(F)cc3)nc2-c2ccc(F)cc2)cc1`, the melting point is reported as 150 to 151 °C. Work on `CC(=O)OC1N=C(c2ccccc2Cl)c2nc(Cl)ccc2-n2c1n[nH]c2=O` (configuration not stated) yielded a melting point of 232 to 236 °C. In the case of `CC(C)(C)c1ccc2c(c1)CNC2=O`, the melting point is reported as 132 to 134 °C. In the case of `CCCCOC(=O)N1C(=O)[C@H](O)[C@@H]1c1ccccc1`, the melting point is reported as 88 to 89 °C. In the case of `CN1CC=C(c2c[nH]c3ccc(NS(C)(=O)=O)cc23)CC1`, the melting point is reported as 210 to 214 °C. `CCN(C(=O)c1ccccc1-c1ccccc1)C(C)(C)c1ccccc1` showed a melting point of 121 to 122 °C. `CC(C)CCOc1c(-c2ccc(S(C)(=O)=O)cc2)cnn(C(C)(C)C)c1=O` showed a melting point of 138 to 139 °C. Work on `Cc1nc2c(N)nc3ccccc3c2n1CCC1(O)CCOCC1` yielded a melting point of over 253 °C. Work on `O=C(CCN1CCN(c2ccccc2)CC1)Nc1ccc(O)cc1` yielded a melting point of 172 to 174 °C. Molecule `CN(C)CCOc1ccc(Nc2nccc(-c3c[nH]nc3-c3ccc(OCc4ccccc4)cc3)n2)cc1` has a melting point of 87 to 91 °C. Work on `CC(C)(C)OC(=O)N1CCC(O)(CS)CC1` yielded a melting point of 54 to 55 °C. `C=CCOc1ccc(C=NO)c(O)c1` showed a melting point of 74 to 76 °C. `CCNC(=O)c1[nH]c2ccc(Cl)cc2c1S(=O)(=O)c1ccccc1` showed a melting point of 259 to 260 °C. `COC(=O)CCn1c(=O)n2n(c1=O)C(C(=O)O)C=CC2` (configuration not stated) gave a melting point of 150 to 153 °C. For `Cc1ccn2c(C)c(-c3ccc4sc(=O)n(Cc5cccnc5)c4c3)nc2c1`, the melting point was 201 to 202 °C. For `COc1cc(Nc2nc3cccc(-c4ccc(S(N)(=O)=O)cc4)c3o2)cc(OC)c1OC`, the melting point was 247 to 252 °C. Molecule `N=C(Nc1cccc(NC(=O)/C=C/c2cccc(Cl)c2)c1)c1ccccc1` has a melting point of 260 to 262 °C. Molecule `CC(=O)n1cc(C#N)c(-c2cccc(Cl)c2Cl)c1` has a melting point of 136 to 137 °C. With `Cc1csc(NCCN2CCC(Nc3nc4ccccc4n3Cc3ccc(F)cc3)CC2)n1` the melting point was 184 °C. For `Oc1ccc(C(=Cc2ccccc2)c2ccc(O)c(O)c2O)c(O)c1O`, the melting point was 142 to 143 °C. In the case of `CC(C)(C)OC(=O)c1ccc([N+](=O)[O-])c(OCCOc2cc(C(=O)OC(C)(C)C)ccc2[N+](=O)[O-])c1`, the melting point is reported as 155 to 157 °C. With `COc1cc2c(cc1OC)CN(CCCOc1ccc([N+](=O)[O-])cc1)CC2` the melting point was 100 °C. Work on `O=C1C(I)=CC2COC1O2` (configuration not stated) yielded a melting point of 66 to 67 °C. Work on `ICCC12CC3CC(CC(C3)C1)C2` yielded a melting point of 93 to 94 °C. For `O=Cc1ccc(Sc2nc3cc(F)c(F)cc3[nH]2)o1`, the melting point was 133 °C. `C=CCNC(=O)O[C@H]1C[C@@H](C(=O)OC)[C@]2(C)CC[C@H]3C(=O)O[C@H](c4ccoc4)C[C@]3(C)[C@H]2C1=O` gave a melting point of 196 to 199 °C. `Cc1cc(-c2ccc(S(N)(=O)=O)cc2)n(-c2ccc(S(C)=O)cc2)c1` (configuration not stated) gave a melting point of 249 to 251 °C. With `NC(=O)C(Nc1ccccc1[N+](=O)[O-])c1c(Cl)cccc1Cl` (configuration not stated) the melting point was 182 °C. Molecule `O=C(N[C@H](Cc1ccc(C(F)(F)F)cc1)[C@@H](O)c1ccc(F)cc1)c1cccc2c1-c1ccccc1C2=O` (racemic) has a melting point of 231 to 232 °C. `Cc1nc(-n2ccc(COc3ccccc3)cc2=O)sc1C(=O)NCc1ccccc1` showed a melting point of 175 to 177 °C. Work on `Fc1ccccc1-c1nc(Cl)nc2ccc(Cl)cc12` yielded a melting point of 208 to 210 °C. In the case of `Cc1ccc2nc3c(nc2c1)SC(C#N)=C(C#N)S3`, the melting point is reported as 213 to 215 °C. For `Cc1ccc(-c2cc(CO)nn2-c2ccc(S(N)(=O)=O)cc2)cc1`, the melting point was 166 to 169 °C. In the case of `COc1ncc(C(=O)Cc2c(Cl)cncc2Cl)cc1OC1CCCC1`, the melting point is reported as 118 to 119 °C. `Oc1cc(Br)ccc1C12CC3CC(CC(C3)C1)C2` showed a melting point of 112 to 114 °C. In the case of `CC(C)n1c(-c2ccccc2)nc(-c2ccc(F)cc2)c1C=O`, the melting point is reported as 130 to 134 °C. With `CC1CCN(C2C3=CC(OC3=O)C3C(CC4(C)OC4C2O)OC(=O)C3C)CC1` (configuration not stated) the melting point was 210 °C. Molecule `FC(F)(F)Oc1ccc2[nH]c(-c3ccco3)nc2c1` has a melting point of 165 to 167 °C. With `Cc1cc(=O)n(-c2cc(C(=O)O)c(Cl)cc2F)c(=O)n1C` the melting point was 236 to 239 °C. For `CCCCCCc1ccc(C(=O)Cc2ccc(Br)cc2)cc1`, the melting point was 108 °C. For `CC(=CN(C)C)C(=O)c1ccc(Cl)cc1`, the melting point was 45 to 47 °C. For `Cc1[nH]c(=O)ccc1C(=O)c1ccc(C#N)cc1`, the melting point was 172 to 175 °C. For `CCCCCCCCC=CCCCCCCCC(=O)OCCCCCCCCCC`, the melting point was 70 °C. Work on `CC(=O)N1CC[C@H](Oc2ccc(C=Cc3cc4cc(C#N)ccc4o3)cc2O)C1` yielded a melting point of 191 to 193 °C. With `CC(C)(C)OC(=O)c1ccc(Cl)c([N+](=O)[O-])c1` the melting point was 66 to 67 °C. With `CN(C)C(=O)N1CCSC1c1ccccc1OCCN1CCN(c2cccc(F)c2)CC1` (configuration not stated) the melting point was 90.5 to 93 °C. `COc1ccc(-c2nc(-c3cccs3)c[nH]2)cc1Br` showed a melting point of 84 to 87 °C. `CN1C(=O)SC(Cc2ccc(NC(=O)/C=C/c3cnn(C)c3-c3ccc(F)cc3)cc2)C1=O` (configuration not stated) gave a melting point of 228 to 229 °C. `CC(C)c1cccc(C(C)C)c1N=C(Nc1c(C(C)C)cccc1C(C)C)ON=C1CCCCC1` gave a melting point of 150 to 152 °C. `CCOC(=O)c1nc2ccccc2nc1C` gave a melting point of 74 to 75 °C. `Cc1oc(-c2ccccc2)nc1COc1ccc(COc2ccc3ccccc3c2CCC(=O)O)cc1` gave a melting point of 161 to 162 °C. `CC(C)(C)OC(=O)[C@@H](C(N)c1ccccc1)[C@@H](O)C[C@@H](Cc1ccccc1)c1ncc2n1C(O)C(C)(C)C2=O` (some centres not stated) gave a melting point of 88 to 90 °C. With `CCCn1c(=O)c2c(nc(/C=C/c3ccc(OC)cc3)n2C)n(CCC)c1=O` the melting point was 160 to 161 °C. `NC(=O)COc1ccc(C(=O)CN2CCN(c3ccncc3)CC2)cc1` gave a melting point of 247 to 248 °C. Work on `OC(Cn1ncc2c(Br)ncnc21)c1ccccc1` (configuration not stated) yielded a melting point of 146 to 147 °C. With `COC(=O)C(C)(C)c1ccc2cc(OC)ccc2c1` the melting point was 97 to 98 °C. Work on `Nc1nc(N)c(N)c(OCc2ccccc2)n1` yielded a melting point of 130 to 135 °C. `FCc1cccc(C#CCCc2cnc3cc(F)c(F)cc3n2)n1` showed a melting point of 135 to 138 °C. `O=C(O)C1=C2OCOc3cccc1c32` gave a melting point of 125 °C. Work on `Cc1ccc2c(c1)c(-c1ccc(F)cc1)cn2N1CCN(C)CC1` yielded a melting point of 105 to 107 °C. With `CCCCSc1ccc(C=O)cc1[N+](=O)[O-]` the melting point was 93 °C. `CN=C=Nc1ccccc1N1CCOCC1` showed a melting point of 67 to 68 °C. For `CCNC(=NC#N)NCCSCc1csc(NC(=N)N)n1`, the melting point was 181 to 182 °C. In the case of `Cc1cn(C(c2ccccc2)c2ccc(Cl)c([N+](=O)[O-])c2)cn1` (configuration not stated), the melting point is reported as 105 °C.
